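Grown in 96-well plates, cells were treated for 48 hours with each compound at five concentrations. Insufficient inhibition: endpoint recorded as highest concentration tested. At the TGI there is no net growth.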
Key:
Assay in all cases: inhibition of tumour cell growth, NCI panel, 48 h
[1] = tested on: OVCAR-5 ovarian
[2] = tested on: UO-31 renal
[3] = tested on: SK-MEL-5 melanoma
[4] = tested on: K-562 leukemia
[5] = tested on: OVCAR-4 ovarian
[6] = tested on: M19-MEL melanoma
[7] = tested on: DMS 114 small cell lung
[8] = tested on: M14 melanoma
[9] = tested on: SNB-78 CNS
[10] = tested on: DMS 273 small cell lung
[11] = tested on: RPMI-8226 leukemia
[12] = tested on: 786-0 renal
[13] = tested on: OVCAR-3 ovarian
[14] = tested on: SNB-75 CNS
[15] = tested on: SF-268 CNS
[16] = tested on: HCC-2998 colon
[17] = tested on: SF-539 CNS
[18] = tested on: SK-OV-3 ovarian
[19] = tested on: EKVX NSCLC
[20] = tested on: CCRF-CEM leukemia
[21] = tested on: U251 CNS
[22] = tested on: DLD-1 colon
[23] = tested on: A498 renal
[24] = tested on: TK-10 renal
[25] = tested on: MOLT-4 leukemia
[26] = tested on: HCT-15 colon
[27] = tested on: LXFL 529 NSCLC
[28] = tested on: COLO 205 colon
[29] = tested on: MALME-3M melanoma
[30] = tested on: HL-60(TB) leukemia
[31] = tested on: HCT-116 colon
[32] = tested on: NCI-H460 lung
[33] = tested on: NCI-H23 lung
[34] = tested on: SF-295 CNS
[35] = tested on: SN12C renal
[36] = tested on: OVCAR-8 ovarian
[37] = tested on: NCI-H522 lung
[38] = tested on: HOP-62 NSCLC
[39] = tested on: LOX IMVI melanoma
[40] = tested on: A549 NSCLC
[41] = tested on: SW-620 colon
[42] = tested on: SNB-19 CNS
[43] = tested on: KM20L2 colon
[44] = tested on: SK-MEL-28 melanoma
[45] = tested on: HT29 colon
[46] = tested on: KM12 colon
[47] = tested on: IGROV1 ovarian
[48] = tested on: XF 498 CNS
[49] = tested on: SK-MEL-2 melanoma
[50] = tested on: UACC-257 melanoma
[51] = tested on: CAKI-1 renal
[52] = tested on: UACC-62 melanoma
[53] = tested on: HOP-92 NSCLC
[54] = tested on: BT-549 breast
[55] = tested on: ACHN renal
[56] = tested on: MDA-N
[57] = tested on: MDA-MB-231 breast
[58] = tested on: T-47D breast
[59] = tested on: DU-145 prostate
[60] = tested on: HS 578T breast
[61] = tested on: NCI/ADR-RES ovarian
[62] = tested on: MCF7 breast
[63] = tested on: SR leukemia
[64] = tested on: MDA-MB-435
[65] = tested on: NCI-H226 lung
[66] = tested on: RXF 393 renal
[67] = tested on: PC-3 prostate

## COc1ccc(NC(=O)CC(=O)n2nc(C)c(N=Nc3ccccc3C(=O)O)c2C)cc1
[1]
  TGI: > 100 µM
[2]
  TGI: > 100 µM
[3]
  TGI: > 100 µM
[4]
  TGI: > 100 µM
[5]
  TGI: > 100 µM
[6]
  TGI: > 100 µM
[7]
  TGI: > 100 µM
[8]
  TGI: > 100 µM
[9]
  TGI: > 100 µM
[10]
  TGI: > 100 µM
[11]
  TGI: > 100 µM
[12]
  TGI: > 100 µM
[13]
  TGI: > 100 µM
[14]
  TGI: 78.8 µM
[15]
  TGI: > 100 µM
[16]
  TGI: > 100 µM
[17]
  TGI: > 100 µM
[18]
  TGI: 94.2 µM
[19]
  TGI: > 100 µM
[20]
  TGI: > 100 µM
[21]
  TGI: > 100 µM
[22]
  TGI: > 100 µM
[23]
  TGI: > 100 µM
[24]
  TGI: > 100 µM
[25]
  TGI: > 100 µM
[26]
  TGI: > 100 µM
[27]
  TGI: > 100 µM
[28]
  TGI: > 100 µM
[29]
  TGI: > 100 µM
[30]
  TGI: > 100 µM
[31]
  TGI: > 100 µM
[32]
  TGI: > 100 µM
[33]
  TGI: > 100 µM
[34]
  TGI: > 100 µM
[35]
  TGI: > 100 µM
[36]
  TGI: > 100 µM
[37]
  TGI: > 100 µM
[38]
  TGI: > 100 µM
[39]
  TGI: > 100 µM
[40]
  TGI: > 100 µM
[41]
  TGI: > 100 µM
[42]
  TGI: > 100 µM
[43]
  TGI: > 100 µM
[44]
  TGI: > 100 µM
[45]
  TGI: > 100 µM
[46]
  TGI: > 100 µM
[47]
  TGI: > 100 µM
[48]
  TGI: > 100 µM
[49]
  TGI: > 100 µM
[50]
  TGI: > 100 µM
[51]
  TGI: > 100 µM
[52]
  TGI: > 100 µM

## Cc1nc2sc(C(=O)c3ccc(Cl)cc3)c(N)c2c(-c2ccccc2Cl)c1C(=O)Nc1ccccc1
[53]
  TGI: 15.9 µM
[1]
  TGI: 38.6 µM
[2]
  TGI: 51.1 µM
[3]
  TGI: 36.6 µM
[4]
  TGI: > 51.8 µM
[5]
  TGI: 41 µM
[8]
  TGI: 25.8 µM
[54]
  TGI: 48 µM
[55]
  TGI: 67.7 µM
[11]
  TGI: 62.2 µM
[56]
  TGI: 29.5 µM
[12]
  TGI: 27.6 µM
[13]
  TGI: 33.9 µM
[57]
  TGI: 34.6 µM
[14]
  TGI: 29.7 µM
[15]
  TGI: > 94.9 µM
[16]
  TGI: 59.9 µM
[17]
  TGI: 30.5 µM
[18]
  TGI: 31.3 µM
[19]
  TGI: 59 µM
[20]
  TGI: 19.9 µM
[21]
  TGI: 37.4 µM
[58]
  TGI: 19 µM
[59]
  TGI: 61 µM
[23]
  TGI: 48 µM
[24]
  TGI: 39.3 µM
[60]
  TGI: 48.7 µM
[61]
  TGI: 60 µM
[25]
  TGI: 51.5 µM
[26]
  TGI: 43.5 µM
[28]
  TGI: 37.4 µM
[29]
  TGI: 29.2 µM
[30]
  TGI: > 86.5 µM
[31]
  TGI: 26.8 µM
[62]
  TGI: 53.8 µM
[32]
  TGI: 28.8 µM
[33]
  TGI: 38.9 µM
[34]
  TGI: 47.9 µM
[63]
  TGI: 58.2 µM
[35]
  TGI: 42.1 µM
[36]
  TGI: 47.1 µM
[37]
  TGI: 25.1 µM
[64]
  TGI: 33.1 µM
[38]
  TGI: 37 µM
[39]
  TGI: 31.7 µM
[40]
  TGI: 31.4 µM
[41]
  TGI: 29.4 µM
[42]
  TGI: 71.2 µM
[65]
  TGI: 62.1 µM
[66]
  TGI: 31.3 µM
[44]
  TGI: 27.4 µM
[45]
  TGI: 31.3 µM
[46]
  TGI: 50 µM
[47]
  TGI: > 70.5 µM
[49]
  TGI: 32.8 µM
[50]
  TGI: 61.8 µM
[51]
  TGI: 36.8 µM
[52]
  TGI: 29.6 µM
[67]
  TGI: 47 µM

## CC(Oc1ccccc1)C(=O)NNC(=O)OC(C)(C)C (stereo not given)
[53]
  TGI: > 100 µM
[1]
  TGI: > 100 µM
[2]
  TGI: > 100 µM
[3]
  TGI: > 100 µM
[4]
  TGI: > 100 µM
[5]
  TGI: > 100 µM
[8]
  TGI: > 100 µM
[54]
  TGI: > 100 µM
[55]
  TGI: > 100 µM
[11]
  TGI: > 100 µM
[56]
  TGI: > 100 µM
[12]
  TGI: > 100 µM
[13]
  TGI: > 100 µM
[57]
  TGI: > 100 µM
[14]
  TGI: > 100 µM
[15]
  TGI: > 100 µM
[16]
  TGI: > 100 µM
[17]
  TGI: > 100 µM
[18]
  TGI: > 100 µM
[19]
  TGI: > 100 µM
[20]
  TGI: > 100 µM
[21]
  TGI: > 100 µM
[58]
  TGI: > 100 µM
[59]
  TGI: > 100 µM
[23]
  TGI: > 100 µM
[24]
  TGI: > 100 µM
[60]
  TGI: > 100 µM
[61]
  TGI: > 100 µM
[25]
  TGI: > 100 µM
[26]
  TGI: > 100 µM
[28]
  TGI: > 100 µM
[29]
  TGI: > 100 µM
[30]
  TGI: > 100 µM
[31]
  TGI: > 100 µM
[62]
  TGI: > 100 µM
[32]
  TGI: > 100 µM
[33]
  TGI: > 100 µM
[34]
  TGI: > 100 µM
[63]
  TGI: > 100 µM
[35]
  TGI: > 100 µM
[36]
  TGI: > 100 µM
[37]
  TGI: > 100 µM
[64]
  TGI: > 100 µM
[38]
  TGI: > 100 µM
[39]
  TGI: > 100 µM
[40]
  TGI: > 100 µM
[41]
  TGI: > 100 µM
[42]
  TGI: > 100 µM
[65]
  TGI: > 100 µM
[66]
  TGI: > 100 µM
[44]
  TGI: > 100 µM
[45]
  TGI: > 100 µM
[46]
  TGI: > 100 µM
[47]
  TGI: > 100 µM
[49]
  TGI: > 100 µM
[50]
  TGI: > 100 µM
[51]
  TGI: > 100 µM
[52]
  TGI: > 100 µM
[67]
  TGI: > 100 µM

— PubChem BioAssay (NCI)
